According to ChEMBL document CHEMBL3233002, “Discovery of potent Keap1-Nrf2 protein-protein interaction inhibitor based on molecular binding determinants analysis” (J Med Chem, 2014):

What was measured:
[1] = biological target: Kelch-like ECH-associated protein 1 (Homo sapiens) (UniProt Q14145); experiment: Inhibition of Keap1-Nrf2 interaction in human HepG2-ARE-C8 cells assessed as activation of Nrf2-ARE luciferase activity at 40 uM after 12 hrs relative to control; type: cell-based
[2] = biological target: Kelch-like ECH-associated protein 1 (Homo sapiens) (UniProt Q14145); experiment: Inhibition of Keap1-Nrf2 interaction in human HepG2-ARE-C8 cells assessed as activation of Nrf2-ARE luciferase activity at 20 uM after 12 hrs relative to control; type: cell-based
[3] = biological target: Kelch-like ECH-associated protein 1 (Homo sapiens) (UniProt Q14145); experiment: Inhibition of Keap1-Nrf2 interaction in human HepG2-ARE-C8 cells assessed as activation of Nrf2-ARE luciferase activity at 80 uM after 12 hrs relative to control; type: cell-based
[4] = Partition coefficient, log D of the compound at pH 7.4; type: physicochemical; settings: octanol/water
[5] = Dissociation constant, pKa of the compound; type: physicochemical
HCT-116 = experiment: Cytotoxicity against human HCT116 cells at 10 uM; type: cell-based; settings: hct-116, 10 µM

Kelch-like ECH-associated protein 1 (Homo sapiens), sequence (Q14145 whole entry): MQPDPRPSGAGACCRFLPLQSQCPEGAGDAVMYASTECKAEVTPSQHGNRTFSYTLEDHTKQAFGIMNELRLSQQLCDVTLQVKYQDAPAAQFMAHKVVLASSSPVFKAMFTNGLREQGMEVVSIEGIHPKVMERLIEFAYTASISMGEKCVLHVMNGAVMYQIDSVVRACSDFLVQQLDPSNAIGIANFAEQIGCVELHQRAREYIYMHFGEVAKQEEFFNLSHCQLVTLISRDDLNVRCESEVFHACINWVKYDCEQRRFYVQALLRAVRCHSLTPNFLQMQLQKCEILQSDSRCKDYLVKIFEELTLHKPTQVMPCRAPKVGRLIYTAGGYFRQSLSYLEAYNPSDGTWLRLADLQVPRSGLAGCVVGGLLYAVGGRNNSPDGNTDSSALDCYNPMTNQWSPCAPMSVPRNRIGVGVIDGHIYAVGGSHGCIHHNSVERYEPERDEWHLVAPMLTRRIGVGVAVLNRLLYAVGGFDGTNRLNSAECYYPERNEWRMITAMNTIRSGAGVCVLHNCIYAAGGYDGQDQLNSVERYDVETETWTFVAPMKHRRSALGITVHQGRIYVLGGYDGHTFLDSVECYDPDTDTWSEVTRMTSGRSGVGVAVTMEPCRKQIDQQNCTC

SMILES: CC(C)(C)c1cc(O)ccc1O
- fold change (FC) [1]: 3.81
- fold change (FC) [2]: 2.22
- fold change (FC) [3]: 6.21

SMILES: C[S+]([O-])CCCCN=C=S (configuration not stated)
- fold change (FC) [2]: 18.1

SMILES: COc1ccc(S(=O)(=O)N(CC(=O)O)c2ccc(N(CC(=O)O)S(=O)(=O)c3ccc(OC)cc3)c3ccccc23)cc1
- logD [4]: 1.71
- pKa [5]: 4.62
- Activity (HCT-116): Non-toxic
